From US20090293139A1, “DOUBLE-INDUCIBLE GENE ACTIVATION SYSTEM AND ITS APPLICATIONS” (The Texas A&M University System Agency State of Texas, priority 2008, published 2009) come the findings set out here.

The structures appear in SMILES notation.

The test system of assay [1] is iCasp9. The assay can be described thus: Western blot (anti-HA) of transfected cell lysates, iCasp9. In kind it is cell-based, monkey. The following applies: for expression of iCasp9 precursors: CVI cells transfected with Glp65 and pTATA-HA-iCasp9, drug alone, anti-HA Western blot. The procedure: (§1) A double-inducible gene activation system was evaluated in vitro using a cell culture model. Three plasmids were constructed: 1) chimeric transcription factor, Glp65 containing progesterone receptor ligand-binding domain (PR-LBDΔ) (FIG. 1); 2) pTATA-HA-iCasp3 (myristoylated) carrying CBD; and 3) pTATA-HA-iCasp9 carrying CBD (FIGS. 1 and 2). The chimeric transcription factor and one of the two caspase plasmids were transfected into CVI cells (monkey kidney fibroblasts).
(§2) One plasmid expressed a tissue-specific chimeric transcription factor (Glp65) that can be activated by RU486, which functioned as the first induction in our system. In this case, an epidermal-specific keratin 14 (K14) promoter was used to direct gene expression to the keratinocytes of the basal epidermis and hair follicles (KI4-Glp65, FIG. 1; Cao et al., 2002; Kucra et al., 1996). The second plasmid expressed the target transgene. The plasmid contained four copies of the 17-mer GAL4 binding site in the promoter region (FIG. 1). Full length of caspase-3 cDNA with CID binding domain and HA-tag fragment was cloned by polymerase chain reation (PCR) from an expression vector pSH1/M-Fv2-Yama-E (Fan et al., 1999) and was then subcloned into p17×4 TATA-H2 kd vector (Bo et al., 2005) by ClaI and BamH I to generate pTATA-HA-iCasp3 […].
(§3) Cell lysates were assessed by Western blot using an anti-HA antibody. […] With the subsequent application of CID, caspase 3 and caspase 9 were activated as evidenced by the disappearance of the caspase precursors due to the hemagglutinin (HA) tag carrying a caspase cleavage consensus site, DVPD (lanes 4 in FIGS. 3 and 4).
For orientation: In western blotting, separated proteins are transferred to a membrane and probed.

Assay [2] relates to iCasp3 precursors. Nature of the assay: Western blot (anti-HA) of transfected cell lysates, iCasp3. In kind it is cell-based, monkey. The following applies: for expression of iCasp3 precursors: CVI cells transfected with Glp65 and pTATA-HA-iCasp3, drug alone, anti-HA Western blot. The procedure:
as §1, §2, §3

Assay [3] deals with adult mouse ear skins and newborn mouse back skins. Nature of the assay: Microscopic and histological analysis of skin (H&E). In kind it is in vivo. The procedure: The skin apoptosis was evaluated by TUNEL assay (panels j-l).
Skin sections from K14-Glp65/iCasp9 newborn mice back skin were visualized by H&E stain (panels a-c), and were immunostained by keratin 14 antibody (panels d-f). […] The skin apoptosis was evaluated by TUNEL assay (panels j-l).
Apoptosis was evaluated by TUNEL staining.

The subject of assay [4] is K14-Glp65/iCasp3 and K14-Glp65/iCasp9 bigenic mice. Nature of the assay: Skin phenotype of adult bigenic mice after RU486 pellet and intraperitoneal CID. In kind it is in vivo, mouse. On the procedure:
A double-inducible gene activation system was tested in vivo in two bigenic mouse lines, K14-Glp65/iCasp3 and K14-Glp65/iCasp9. The bigenic mice were generated by breeding two individual mouse lines.
The breeding of the first and second transgenic mouse lines generated bigenic mice called K14-Glp65/iCasp3 and K14-Glp65/iCasp9, which harbored both RU486 and CID regulators as depicted in FIG. 1. With the application of RU486, the Glp65 fusion protein was exclusively expressed in skin keratinocytes, which subsequently initiated caspase precursor induction.
Bigenic mice between 8 and 15 weeks of age were subjected to RU486 treatment using a 21-day-release pellet that was surgically inserted beneath the skin in the region of the posterior scapula. The addition of RU486 activates the chimeric transcription factor and allows it to bind to the GAL4 DNA binding site of the caspase precursor target gene (either icasp3 or icasp9) and induces target gene expression. After seven days of RU486 treatment, CID was applied intraperitoneally to induce self-activation of caspase precursors. Placebo pellets lacking RU486 and CID-diluent were used for control groups.

Assay [5] concerns adult mouse ear skins and newborn mouse back skins. Nature of the assay: TUNEL staining of skin (apoptosis). In kind it is in vivo.
Method: (§5) Induction of the two caspases was then further studied by immunohistochemical staining with an anti-HA antibody. […] Apoptosis was evaluated by TUNEL staining.
In assay [6] the test system is caspase-9. The assay can be described thus: Clonetech ApoAlert Caspase Assay, caspase-9 activity in transfected CVI cells. Particulars: CVI cells treated for 1.5 hrs. In kind it is cell-based, monkey. The procedure: as §1
The test system of assay [7] is caspase-3. The assay can be described thus: Clonetech ApoAlert Caspase Assay, caspase-3 activity in transfected CVI cells. In kind it is cell-based, monkey. The following applies: CVI cells treated for 1.5 hrs. The procedure: as §1
Assay [8] deals with K14-Glp65/iCasp3 and K14-Glp65/iCasp9 bigenic mice. Nature of the assay: Skin phenotype of neonates after RU486 in utero and topical CID. In kind it is in vivo, mouse. The following applies: RU486 in utero; topical CID twice per day, after two days; compared to control littermates. On the procedure:
(§4) To closely monitor the phenotypic changes of the skin of bigenic mice after the activation of caspases through the double-inducible system, we tested system in neonates by delivering RU486 in utero. The RU486 was dissolved in sesame oil and delivered intraperitoneally for 5 days at a dosage of 100 μg/kg per day into pregnant female K14-Glp65/iCasp3 and K14-Glp65/iCasp9 bigenic mice at 14.5 days gestation. To counter the abortion side-effect of RU486, progesterone (Sigma, St. Louis, Mo.) at 0.5 mg/mouse per day was applied along with RU486. Transgenic pups were treated topically with CID on their dorsal anterior-posterior (AP) axes twice per day and monitored closely for phenotypic changes or visible signs of apoptosis. Control littermates were treated with only the diluent only without CID. […] On day four, skin biopsies were taken from the back skin of the pups and fixed in 4% paraformaldehyde.

Assay [9] concerns caspase 3. Nature of the assay: Western blot of mouse skin tissues, induced caspase 3. In kind it is in vivo. Particulars: transgenic mouse skin. On the procedure:
as §4

Assay [10] concerns caspase 9. Nature of the assay: Western blot of mouse skin tissues, induced caspase 9. In kind it is in vivo. Particulars: transgenic mouse skin. The procedure: as §4
Assay [11] relates to caspase precursors. Nature of the assay: Immunohistochemical staining of skin with anti-HA antibody. In kind it is in vivo. Particulars: adult mouse ear skins and newborn mouse back skins.
Method: as §5
Setting [12] is: subsequent application of CID after RU486, CVI cells.

Consider `CC[C@H](C(=O)N1CCCC[C@H]1C(=O)O[C@H](CCc1ccc(OC)c(OC)c1)c1cccc(OCC(=O)NCC(CNC(=O)COc2cccc([C@@H](CCc3ccc(OC)c(OC)c3)OC(=O)[C@@H]3CCCCN3C(=O)[C@@H](CC)c3cc(OC)c(OC)c(OC)c3)c2)CN(C)C)c1)c1cc(OC)c(OC)c(OC)c1` [CID], for which, in assay [1], the “expression of iCasp9 precursors” value is given as “No caspase precursors were induced”. In addition, the “caspase 9 activation (disappearance of the caspase precursors)” value in assay [1] (setting [12]) is reported as “activated”. Moreover, the “expression of iCasp3 precursors” value in [2] is listed as “No caspase precursors were induced”. Moreover, the “caspase 3 activation (disappearance of the caspase precursors)” value in assay [2] (setting [12]) was “activated”. Further, the skin structure result in assay [3] is “normal skin structures”. Moreover, in assay [4] (adult bigenic mice, five days following intraperitoneal CID after seven days of RU486 pellet), the “skin phenotype of ears” value is “reddening of the surface layers of the skin and thickness”. In assay [5], the “TUNEL-positive nuclei (apoptosis)” value is listed as “no or basal level of apoptosis”. For the same compound, in assay [6], the “increase in caspase-9 activity” value is listed as “not”. Further, in assay [7], the “increase in caspase-3 activity” value is on record as “not”. Also, the “skin phenotype of pups” value in assay [8] is “exhibited peeling and appeared dehydrated”.

As to `CC#C[C@]1(O)CC[C@H]2[C@@H]3CCC4=CC(=O)CCC4=C3[C@@H](c3ccc(N(C)C)cc3)C[C@@]21C` [RU486, mifepristone], the “expression of iCasp9 precursors” value in assay [1] is “induced the expression”. In addition, in assay [9], the “expression level of induced caspase 3” value is “strong expression”. Besides, the “expression of iCasp3 precursors” value in [2] is listed as “induced the expression”. The “expression level of induced caspase 9” value in [10] is listed as “strong expression”. Besides, the skin structure result in assay [3] was “normal skin structures”. For the same compound, the “skin phenotype of ears” value in [4] (adult bigenic mice that only received RU486 treatment) is given as “did not observe this phenotype”. Further, the “TUNEL-positive nuclei (apoptosis)” value in [5] is given as “no or basal level of apoptosis”. Moreover, in [11], the “expression of caspase precursors (anti-HA staining)” value is recorded as “Strong expression”. For the same compound, in assay [6], the “increase in caspase-9 activity” value is given as “not”. The “increase in caspase-3 activity” value in [7] is listed as “not”.
